Measurements: US7351729B2, “JNK inhibitors for use in combination therapy for treating or managing proliferative disorders and cancers” (Signal Pharmaceuticals, LLC, priority 2002, dated 2008)

Experiments:
[1] = tested on: MiaPaCa cells; experiment: MiaPaCa cell apoptosis, DiOC6 staining and flow cytometry; format: cell-based; conditions: taxol for first 7 hours, washed out, then JNK inhibitor A; read at 48 hours; compared to taxol alone
Method: The following experiment was performed to determine the effectiveness of combination treatment with JNK inhibitor A and a chemodrug on apoptosis. The results are illustrated in FIG. 3.
MiaPaCa cells (100,000/well) were plated in 6 well plates. Following overnight incubation, vehicle or taxol was added alone for the first 7 hours, washed out, and then JNK inhibitor A or vehicle were added for the remainder of the experiment. After 48 hours, each sample was trypsinized, stained with DiOC6 and analyzed by flow cytometry on a Coulter Epics flow cytometer using FlowJo software.

[2] = tested on: Lewis lung carcinoma; experiment: LLC tumor growth in mice, JNK inhibitor A with cyclophosphamide; format: in vivo, C57BL/6 mice; conditions: JNK inhibitor A in combination with cyclophosphamide; p=0.05; N=10
Method: The following experiment was performed to determine the effectiveness of combination treatment with JNK inhibitor A and cyclophosphamide. The results are illustrated in FIG. 4.
Tumor cells were cultured under normal conditions, harvested with trypsin, washed with PBS then resuspended, 1×10^7 cells/ml in Matrigel (Collaborative). C57BL/6 mice (female, 18-20 g, Charles River) were lightly anesthetized using Isofluorane then inoculated, subcutaneously, under the right flank with 0.1 ml Matrigel containing 1×10^6 tumor cells. Mice were randomized into treatment groups immediately after cell inoculation. After 3 days tumor growth treatment began. Mice were administered vehicle alone (DMSO), cyclophosphamide (CTX), JNK inhibitor A or CTX in combination with JNK inhibitor A. Tumor volumes were determined by caliper measurement. Tumor volume was calculated by the formula: mm^3=(L×W2)/2. Values are mean±sem, N=10.

[3] = tested on: Lewis Lung Carcinoma (LLC) cells; experiment: Lewis Lung Carcinoma (LLC) proliferation in vitro, Alamar Blue fluorescence; format: cell-based; conditions: combination with a chemodrug (doxorubican, 5-FU, cisplatin or paclitaxel), 48 hours after treatment, relative to JNK inhibitor or chemodrug alone
Method: This experiment was performed in vitro to determine the effect on Lewis Lung Carcinoma (LLC) proliferation of combination treatment with JNK inhibitor A and JNK inhibitor B (JNK inhibitor A=((2H-Dibenzo(cd,g)indazol-6-one)); JNK inhibitor B=(3-(4-fluoro-phenyl)-5-(2H-(1,2,4-triazol-3-yl)-1H-indazole)) and anti-cancer agents. The results are illustrated in FIGS. 1A and 1B.
LLC cells were grown in DMEM with 10% FBS. Cells were subsequently treated on the second day with either DMSO,JNK inhibitor A (3 μM, 10 μM or 30 μM), JNK inhibitor B (1 μM, 3 μM, or 10 μM), or a chemodrug (i.e., doxorubican, […] (5-FU), cisplatin or paclitaxel) (concentrations ranging from 0.001 μM to 10 μM) or a combination of JNK inhibitor A or JNK inhibitor B with a chemodrug. Cell proliferation was measured at 48 hours after treatment by Alamar Blue fluorescence.

[4] = tested on: Lewis Lung Carcinoma (LLC) tumors; experiment: LLC tumor growth in mice, JNK inhibitor B with cyclophosphamide; format: in vivo, C57BL/6 mice; conditions: CTX (50 mg/kg, ip, q3d) in combination with JNK inhibitor B; 17 days; 10/group
Method: This experiment was performed to determine if JNK inhibitors will enhance the antitumor effects of cyclophosphamide (CTX) in combination treatment. Results are illustrated in FIG. 2.
Lewis Lung Carcinoma (LLC) tumors were injected into C57BL/6 mice (50 mice, 10/group), 1×10^6 cells in 0.1 ml Matrigel. Tumors were treated the day after inoculation by administration of vehicle alone (0.5% CMC/0.25% Tween 80), cyclophosphamide (CTX, 50 mg/kg, ip, q3d), SPC2 (75 mg/kg, ip, b.i.d.) or CTX in combination with JNK inhibitor B. Tumor volume was recorded over a period of 17 days. Tumor volume was calculated by the formula: mm^3=(L×W^2)/2. In the CTX/JNK inhibitor B combination group, 7/10 animals had no measurable tumors at the end of the study.

[5] = tested on: HCT-116 human colorectal cancer cells; experiment: HCT-116 tumor growth in SCID mice, JNK inhibitor C with Camptosar; format: in vivo, CB17 SCID mice; conditions: JNK inhibitor C (15 mg/kg, i.p., b.i.d) + Camptosar (1.5 mg/kg, q4d)
Method: The following experiment was performed to determine the effectiveness of combination treatment with JNK inhibitor C (JNK inhibitor C=(3-(4-(2-Piperidin-1-yl-ethoxy)-cyclohexa-1,5-dienyl)-5-(2H-(1,2,4)triazol-3-yl)-1H-indazole)) and Camptosar. The results are illustrated in FIG. 5.
CB17 SCID mice were inoculated subcutaneously with HCT-116 human colorectal cancer cells. On day 8, mice bearing tumors of 100 mm^3 were segregated into groups and administered i.p. with vehicle (citrate buffer), JNK inhibitor C (15 mg/kg), JNK inhibitor C (30 mg/kg), JNK inhibitor C (15 mg/kg)+Camptosar (1.5 mg/kg), Camptosar (1.5 mg/kg) or Camptosar (10 mg/kg). The tumors were measured twice a week and volumes calculated. The dosing regimen for the compound JNK inhibitor C was b.i.d and for Camptosar was q4d. The arrows indicate the dosing days of JNK inhibitor C and Camptosar.

Row | SMILES | chemotherapeutic induction of apoptosis [1] | tumor inhibition (tumor volume) versus cyclophosphamide alone [2] | killing of cells (cell proliferation) [3] | animals with no measurable tumors at the end of the study [4] | tumor growth versus either treatment alone [5]
1 | O=C1c2ccccc2-c2n[nH]c3cccc1c23 [JNK inhibitor A, 2H-Dibenzo(cd,g) indazol-6-one] | Potentiates Chemotherapeutic Induction of Apoptosis | significantly less | increased killing of cells | – | –
2 | Fc1ccc(-c2n[nH]c3ccc(-c4ncn[nH]4)cc23)cc1 [JNK inhibitor B, 3-(4-fluoro-phenyl)-5-(2H-(1,2,4)triazol-3-yl)-1H-indazole] | – | – | increased killing of cells | 7/10 | –
3 | C1=CC(OCCN2CCCCC2)CC=C1c1n[nH]c2ccc(-c3ncn[nH]3)cc12 (stereo not drawn) [JNK inhibitor C, 3-(4-(2-Piperidin-1-yl-ethoxy)-cyclohexa-1,5-dienyl)-5-(2H-(1,2,4)triazol-3-yl)-1H-indazole] | – | – | – | – | significantly slower
